From US8093231B2, “Sulfonylethyl phosphorodiamidates” (Telik, Inc., priority 2004, dated 2012) come the findings set out here.

Each structure is given as a SMILES string. Like-named read-outs stand apart in the source and are kept apart here.

Holding throughout (format): cell-based, human
One test concerns MX-1 (breast carcinoma). Kind of test: Cytotoxicity/growth inhibition assay, MX-1. To be noted: read-out: IC50 (MX-1). The source says:
(§1) The human cancer cell lines DLD-1 (colorectal adenocarcinoma), LNCap (prostate carcinoma), and OVCAR-3 (ovarian carcinoma) were obtained from the American Type Culture Collection, Manassas, Va., U.S.A., and HL-60 (promyeloid myelocytic leukemia), MX-1 (breast carcinoma), P388, and P388ADR from the National Cancer Institute, Bethesda, Md., U.S.A. Carboplatin, doxorubicin, and melphalan were obtained from Sigma-Aldrich Chemical Company, St. Louis, Mo., U.S.A. The CellTiter-Glo assay kit was obtained from Promega Corporation, Madison, Wis., U.S.A., and the Cellular DNA Cytometric Analysis Reagent Kit from Roche Diagnostics Corporation, Indianapolis, Ind., U.S.A. Lambda DNA was obtained from New England Biolabs, Beverly, Mass., U.S.A., and SYBR-Gold from Molecular Probes, Inc., Eugene, Oreg., U.S.A. The DNeasy Tissue Kit was obtained from Qiagen Inc., Valencia, Calif., U.S.A., and AmpliTaq Gold DNA polymerase and PCR reagents from Applied Biosystems, Foster City, Calif., U.S.A. All products were used in accordance with manufacturer's directions. All assays were conducted in triplicate wells, with dimethyl sulfoxide (DMSO) solvent control. The extent of cell growth was expressed as a percentage of the signal from the solvent control wells.
(§2) Log-phase cells were trypsinized, collected by centrifugation, and resuspended in a small volume of fresh medium, and the density of viable cells was determined following Trypan Blue staining. Cells were diluted in fresh media (3×10^3 cells/mL for MX-1, 3×10^3 cells/mL for DLD-1, and 6×10^3 cells/mL for LNCap cells), the test compounds (concentrations between 0.1 and 200 μM, dissolved in DMSO, 50 μL) added immediately after dilution to achieve a final DMSO concentration of 0.5%, then the suspensions added at 150 μL/well to 96-well plates, and incubated for several hours to allow attachment in the case of adherent cells. The cells were cultured for approximately three doubling times (3 days for MX-1 and 4 days for DLD-1 and LNCap). The cells were then collected by centrifugation, and 100 μL of the culture supernatant was replaced by the CellTiter-Glo reagent. After incubation for 15 minutes at room temperature, and the plate was read with a luminometer.

Test [1] relates to DLD-1 (colorectal adenocarcinoma). Briefly: Cytotoxicity/growth inhibition assay, DLD-1. To be noted: read-out: IC50 (DLD-1).
From the text: as §1, §2

Test [2] relates to LNCap (prostate carcinoma). Briefly: Cytotoxicity/growth inhibition assay, LNCap. To be noted: LNCap cells, 4 days culture, CellTiter-Glo, 0.1-200 μM tested; read-out: IC50 (LNCap).
From the text: as §1, §2
In general terms: In ATP-based viability assays light output follows the ATP content of the culture.

Where [3] appears, read: MX-1 cells, 3 days culture, CellTiter-Glo, 0.1-200 μM tested.
Where [4] appears, read: DLD-1 cells, 4 days culture, CellTiter-Glo, 0.1-200 μM tested.

Take `CN(C)CCNC(=O)c1ccc(CS(=O)(=O)CCOP(=O)(N(CCCl)CCCl)N(CCCl)CCCl)cc1` [Compound 173A]: the IC50 in the test on MX-1 (breast carcinoma) (setting [3]) came out at 104 µM; in test [1] (setting [4]) it was 37.9 µM.
On to `Cc1c(O)c(CO)c(CS(=O)(=O)CCOP(=O)(N(CCCl)CCCl)N(CCCl)CCCl)c[n+]1[O-]` [Compound 184A], for which the concentration for half-maximal inhibition (IC50) with MX-1 (breast carcinoma) (setting [3]) was 28.9 µM; in test [2], 94.8 µM; in test [1] (setting [4]), 5.3 µM.
For `N[C@@H](CCS(=O)(=O)CCOP(=O)(N(CCCl)CCCl)N(CCCl)CCCl)C(=O)O` [Compound 77A], the results for the IC50 (with MX-1 (breast carcinoma) (setting [3]); in test [2]; in test [1] (setting [4])) were 21.3 µM, 140 µM and 8 µM, respectively.
For `O=C(c1ccc(CS(=O)(=O)CCOP(=O)(N(CCCl)CCCl)N(CCCl)CCCl)cc1)N1CCCCC1` [Compound 159A], in that order: 5.3 µM, 24.4 µM and 3.5 µM.
As for `CS(=O)(=O)N[C@@H](CS(=O)(=O)CCOP(=O)(N(CCCl)CCCl)N(CCCl)CCCl)C(=O)N1CCN(C(=O)c2ccco2)CC1` [Compound 98A], the figures for the IC50 (in the test with MX-1 (breast carcinoma) (setting [3]); in test [2]; in test [1] (setting [4])) were 27.9 µM, 144 µM and 9.9 µM, respectively.
For `CCCS(=O)(=O)CCOP(=O)(N(CCCl)CCCl)N(CCCl)CCCl` [Compound 3A], in that order: 11.4 µM, 67.6 µM and 9.2 µM.
Take `O=C(CS(=O)(=O)CCOP(=O)(N(CCCl)CCCl)N(CCCl)CCCl)N1CCNCC1` [Compound 68A]: the IC50 in the test with MX-1 (breast carcinoma) (setting [3]) turned out to be 36.7 µM; in test [1] (setting [4]), 18 µM.
Regarding `O=P(OCCS(=O)(=O)c1ncc2nc[nH]c2n1)(N(CCCl)CCCl)N(CCCl)CCCl` [Compound 127A], the IC50 with MX-1 (breast carcinoma) (setting [3]) is 15.2 µM; in test [2] it was no less than 200 µM; in test [1] (setting [4]) it was 5.8 µM.
For the compound `Cc1ncc(CS(=O)(=O)CCOP(=O)(N(CCCl)CCCl)N(CCCl)CCCl)c(CO)c1O` [Compound 183A], the values for the IC50 (in the test with MX-1 (breast carcinoma) (setting [3]); in test [2]; in test [1] (setting [4])) were 18.4 µM, 42.1 µM and 4.9 µM, respectively.
Consider `O=C(CCS(=O)(=O)CCOP(=O)(N(CCCl)CCCl)N(CCCl)CCCl)NC1CC1` [Compound 55A], for which the values for the IC50 (in the test with MX-1 (breast carcinoma) (setting [3]); in test [1] (setting [4])) were 14.7 µM and 10.1 µM, respectively.
Regarding `CS(=O)(=O)CCC(NC(=O)CS(=O)(=O)CCOP(=O)(N(CCCl)CCCl)N(CCCl)CCCl)C(=O)O` (stereo not drawn) [Compound 66A], the IC50 stood at 29.1 µM in the test with MX-1 (breast carcinoma) (setting [3]) and 18.8 µM in test [1] (setting [4]).
On to `O=C(O)CNC(=O)CS(=O)(=O)CCOP(=O)(N(CCCl)CCCl)N(CCCl)CCCl` [Compound 40A], for which the IC50 in the test on MX-1 (breast carcinoma) (setting [3]) was found to be 32 µM; in test [1] (setting [4]), 13 µM.
Take `O=C(CS(=O)(=O)CCOP(=O)(N(CCCl)CCCl)N(CCCl)CCCl)N1CCC(O)CC1` [Compound 52A]: the IC50 in the test with MX-1 (breast carcinoma) (setting [3]) worked out at 15.6 µM; in test [1] (setting [4]) it was 10.2 µM.
With `CCNC(=O)CCS(=O)(=O)CCOP(=O)(N(CCCl)CCCl)N(CCCl)CCCl` [Compound 54A], the IC50 turned out to be 9.3 µM in the test on MX-1 (breast carcinoma) (setting [3]) and 7.4 µM in test [1] (setting [4]).
Regarding `COCCNC(=O)CS(=O)(=O)CCOP(=O)(N(CCCl)CCCl)N(CCCl)CCCl` [Compound 48A], the IC50 with MX-1 (breast carcinoma) (setting [3]) came out at 4.4 µM; in test [1] (setting [4]), 15.5 µM.
Consider `CC(C)(C)OC(=O)CC(NC(=O)CS(=O)(=O)CCOP(=O)(N(CCCl)CCCl)N(CCCl)CCCl)C(N)=O` (stereo not drawn) [Compound 41A], for which the half-maximal inhibitory concentration (IC50) in the test with MX-1 (breast carcinoma) (setting [3]) was 29.3 µM; in test [1] (setting [4]), 10.8 µM.
Turning to `O=C(CS(=O)(=O)CCOP(=O)(N(CCCl)CCCl)N(CCCl)CCCl)N1CCN(CCO)CC1` [Compound 69A], the IC50 in the test on MX-1 (breast carcinoma) (setting [3]) worked out at 34.6 µM; in test [1] (setting [4]) it was 14.1 µM.
In the case of `COC(=O)[C@H](CS(=O)(=O)CCOP(=O)(N(CCCl)CCCl)N(CCCl)CCCl)NS(C)(=O)=O` [Compound 79A, N-(Methanesulfonyl)-3-[[2-[[bis[bis(2-chloroethyl)amino]phosphinyl]oxy]ethyl]sulfonyl]-L-alanine methyl ester], the IC50 in the test with MX-1 (breast carcinoma) (Homo sapiens, MX1, 72 h) was found to be 88 µM; in test [1] (Homo sapiens, DLD-1, 96 h), 26.6 µM.
Consider `O=C(CCS(=O)(=O)CCOP(=O)(N(CCCl)CCCl)N(CCCl)CCCl)N1CCC(O)CC1` [Compound 59A], for which the IC50 is 25.4 µM in the test on MX-1 (breast carcinoma) (setting [3]) and 15.1 µM in test [1] (setting [4]).
With `CNC(=O)CCS(=O)(=O)CCOP(=O)(N(CCCl)CCCl)N(CCCl)CCCl` [Compound 53A], the figures for the IC50 (with MX-1 (breast carcinoma) (setting [3]); in test [1] (setting [4])) were 11.3 µM and 8.4 µM, respectively.
For `COCCNC(=O)CCS(=O)(=O)CCOP(=O)(N(CCCl)CCCl)N(CCCl)CCCl` [Compound 57A], in that order: 18 µM and 10.1 µM.
Regarding `O=C(CCS(=O)(=O)CCOP(=O)(N(CCCl)CCCl)N(CCCl)CCCl)N1CCOCC1` [Compound 58A], the IC50 is 17 µM in the test on MX-1 (breast carcinoma) (setting [3]) and 12.9 µM in test [1] (setting [4]).
For `NC(=O)C(CC(=O)O)NC(=O)CS(=O)(=O)CCOP(=O)(N(CCCl)CCCl)N(CCCl)CCCl` (stereo not drawn) [Compound 61A], in that order: 30.9 µM and 20 µM.
For `O=C(O)[C@@H]1CCCN1C(=O)CS(=O)(=O)CCOP(=O)(N(CCCl)CCCl)N(CCCl)CCCl` [Compound 62A], in that order: 15 µM and 16.5 µM.
Turning to `CC(C)(C)OC(=O)CN1CCN(C(=O)CS(=O)(=O)CCOP(=O)(N(CCCl)CCCl)N(CCCl)CCCl)CC1` [Compound 47A], the figures for the IC50 (in the test with MX-1 (breast carcinoma) (setting [3]); in test [1] (setting [4])) were 15.9 µM and 9.3 µM, respectively.
With `O=C(CCS(=O)(=O)CCOP(=O)(N(CCCl)CCCl)N(CCCl)CCCl)NCCO` [Compound 56A], the IC50 turned out to be 19.3 µM in the test on MX-1 (breast carcinoma) (setting [3]) and 8.2 µM in test [1] (setting [4]).
For `NC(=O)CC(NC(=O)CS(=O)(=O)CCOP(=O)(N(CCCl)CCCl)N(CCCl)CCCl)C(=O)O` (stereo not drawn) [Compound 65A], in that order: 31.8 µM and 21.4 µM.
For the compound `O=C(CS(=O)(=O)CCOP(=O)(N(CCCl)CCCl)N(CCCl)CCCl)NC1CC1` [Compound 60A], the IC50 came out at 11.3 µM in the test on MX-1 (breast carcinoma) (setting [3]) and 7.4 µM in test [1] (setting [4]).
For `CC(C)C(NC(=O)CS(=O)(=O)CCOP(=O)(N(CCCl)CCCl)N(CCCl)CCCl)C(=O)O` (stereo not drawn) [Compound 63A], in that order: 10 µM and 17.2 µM.
On to `O=C(CS(=O)(=O)CCOP(=O)(N(CCCl)CCCl)N(CCCl)CCCl)NCCO` [Compound 49A], for which the IC50 was 29 µM in the test with MX-1 (breast carcinoma) (setting [3]) and 11.6 µM in test [1] (setting [4]).
Take `CC(NC(=O)CS(=O)(=O)CCOP(=O)(N(CCCl)CCCl)N(CCCl)CCCl)C(=O)O` (stereo not drawn) [Compound 64A]: the IC50 was found to be 37.3 µM in the test with MX-1 (breast carcinoma) (setting [3]) and 22 µM in test [1] (setting [4]).
For `CC(NC(=O)CS(=O)(=O)CCOP(=O)(N(CCCl)CCCl)N(CCCl)CCCl)C(=O)OC(C)(C)C` (stereo not drawn) [Compound 44A], in that order: 34.8 µM and 11.1 µM.
As for `CC(C)(C)OC(=O)[C@@H]1CCCN1C(=O)CS(=O)(=O)CCOP(=O)(N(CCCl)CCCl)N(CCCl)CCCl` [Compound 42A], the IC50 with MX-1 (breast carcinoma) (setting [3]) came to 7.6 µM; in test [1] (setting [4]), 4.7 µM.
Regarding `O=C(O)CCNC(=O)CS(=O)(=O)CCOP(=O)(N(CCCl)CCCl)N(CCCl)CCCl` [Compound 39A], the IC50 in the test with MX-1 (breast carcinoma) (setting [3]) was 30.8 µM; in test [1] (setting [4]), 13.3 µM.
`O=C(Nc1cccc(CS(=O)(=O)CCOP(=O)(N(CCCl)CCCl)N(CCCl)CCCl)c1)C1CCCNC1` (stereo not drawn) [Compound 148A]: the IC50 (with MX-1 (breast carcinoma) (setting [3]); in test [1] (setting [4])) was no less than 200 µM each time.
Consider `O=C(CS(=O)(=O)CCOP(=O)(N(CCCl)CCCl)N(CCCl)CCCl)N1CCOCC1` [Compound 51A], for which the IC50 in the test on MX-1 (breast carcinoma) (setting [3]) was 6.9 µM; in test [1] (setting [4]), 6.7 µM.
Take `CCNC(=O)CS(=O)(=O)CCOP(=O)(N(CCCl)CCCl)N(CCCl)CCCl` [Compound 50A]: the IC50 in the test with MX-1 (breast carcinoma) (setting [3]) was found to be 17.1 µM; in test [1] (setting [4]), 11.9 µM.

By IC50 is commonly meant the concentration needed to halve the response being measured.
